In patent publication EP4635500A1, “THERAPEUTIC AGENT FOR BACTERIAL INFECTION” (Sumitomo Pharma Co., Ltd., priority 2022, dated 2024):
≈ marks a conversion by molar mass, not a printed value. Like-named read-outs stand apart in the source and are kept apart here.

Columns and labels:
Assay type in all cases: cell-based
[1] = test system: Prevotella spp.; assay: MIC, agar dilution, anaerobic bacteria (Example 9, Tables 18, 23); settings: for MIC: (n)=Compound A µg/mL, 0=Compound A alone antibacterial
[2] = test system: Bacteroides spp.; assay: MIC, agar dilution, anaerobic bacteria (Example 9, Tables 17, 22); settings: for MIC: (n)=Compound A µg/mL, 0=Compound A alone antibacterial
[3] = test system: Enterobacter aerogenes; assay: MIC and MBC, broth microdilution (Example 4, Table 3); settings: Klebsiella aerogenes
[4] = test system: Serratia marcescens; assay: as above; settings: Serratia marcescens CDC-124 (SME-3)
[5] = test system: Enterobacter cloacae complex; assay: as above; settings: Enterobacter cloacae complex CDC-164 (NMC-A)

SMILES: C[C@@H](O)[C@H]1C(=O)N2C(C(=O)O)=C(S[C@@H]3CN[C@H](C(=O)N(C)C)C3)[C@H](C)[C@H]12 [MEPM, meropenem]
- MIC ([1]; KUB No. 6626 Prevotella loescheii): ≤ 0.03 µg/mL
- MIC ([1]; KUB No. 6629 Prevotella bivia): 0.06 µg/mL (≈ 0.156 µM)
- MIC ([1]; KUB No. 6630 Prevotella nigrescens): ≤ 0.03 µg/mL
- MIC ([1]; KUB No. 6631 Prevotella jejuni): 0.06 µg/mL (≈ 0.156 µM)
- MIC50 ([1]; Prevotella spp.): 0.06 µg/mL (≈ 0.156 µM)
- MIC90 ([1]; Prevotella spp.): 0.12 µg/mL (≈ 0.313 µM)
- MICrange ([1]; Prevotella spp.): ≤0.03 to 0.5 µg/mL
- MIC ([1]; Prevotella, KUB No. 6583 Prevotella nonceiensis): 0.12 µg/mL (≈ 0.313 µM)
- MIC ([1]; Prevotella, KUB No. 6604 Prevotella nonceiensis): 0.25 µg/mL (≈ 0.652 µM)
- MIC50 ([1]; Prevotella, n=54, combination: Compound A at 4 ug/mL, read-out: MIC50): 0.06 µg/mL
- MIC90 ([1]; Prevotella, n=54, combination: Compound A at 4 ug/mL, read-out: MIC90): 0.12 µg/mL
- MIC ([1]; po, KUB No. 6566 Prevotella oralis): ≤ 0.03 µg/mL
- MIC50 ([2]; Bacteroides spp.): 0.5 µg/mL (≈ 1.3 µM)
- MIC90 ([2]; Bacteroides spp.): 4 µg/mL (≈ 10.4 µM)
- MIC ([2]; Bacteroides, KUB No. 2982 Bacteroidesfragilis): 0.12 µg/mL (≈ 0.313 µM)
- MIC ([2]; Bacteroides, KUB No. 6464 Bacteroides vulgarus): 0.12 µg/mL (≈ 0.313 µM)
- MIC ([2]; Bacteroides, KUB No. 6480 Bacteroides thetaioraomicron): 1 µg/mL (≈ 2.61 µM)
- MIC ([2]; Bacteroides, KUB No. 6487 Bacteroides thetaiotamicron): 2 µg/mL (≈ 5.22 µM)
- MIC50 ([2]; Bacteroides, n=56, combination: Compound A at 4 ug/mL, read-out: MIC50): 0.5 µg/mL
- MIC90 ([2]; Bacteroides, n=56, combination: Compound A at 4 ug/mL, read-out: MIC90): 4 µg/mL
- MIC ([2]; KUB No. 2977 Bacteroides thetaiotaomicron ATCC 29741): 0.25 µg/mL (≈ 0.652 µM)
- MIC ([2]; KUB No. 2983 Bacteroides fragilis): 4 µg/mL (≈ 10.4 µM)
- MIC ([2]; KUB No. 2984 Bacteroides thetaiotaomicron): 0.25 µg/mL (≈ 0.652 µM)
- MIC ([2]; KUB No. 3003 Bacteroides fragilis ATCC 25285): 0.12 µg/mL (≈ 0.313 µM)
- MIC ([2]; KUB No. 3009 Bacteroides ovatus): 1 µg/mL (≈ 2.61 µM)
- MIC ([2]; KUB No. 6458 Bacteroides fragilis): 0.5 µg/mL (≈ 1.3 µM)
- MIC ([2]; KUB No. 6459 Bacteroides stercoris): 0.25 µg/mL (≈ 0.652 µM)
- MIC ([2]; KUB No. 6460 Bacteroides thetaiotaomicron): 2 µg/mL (≈ 5.22 µM)
- MIC ([2]; KUB No. 6461 Bacteroides fragilis): 0.5 µg/mL (≈ 1.3 µM)
- MIC ([2]; KUB No. 6463 Bacteroides fragilis): 0.12 µg/mL (≈ 0.313 µM)
- MIC ([2]; KUB No. 6465 Bacteroides thetaiotaomicron): 0.5 µg/mL (≈ 1.3 µM)
- MIC ([2]; KUB No. 6466 Bacteroides fragilis): 4 µg/mL (≈ 10.4 µM)
- MIC ([2]; KUB No. 6467 Bacteroides fragilis): 0.12 µg/mL (≈ 0.313 µM)
- MIC ([2]; KUB No. 6468 Bacteroides fragilis): 4 µg/mL (≈ 10.4 µM)
- MIC ([2]; KUB No. 6469 Bacteroides fragilis): 0.25 µg/mL (≈ 0.652 µM)
- MIC ([2]; KUB No. 6470 Bacteroides fragilis): 0.25 µg/mL (≈ 0.652 µM)
- MIC ([2]; KUB No. 6471 Bacteroides fragilis): 0.12 µg/mL (≈ 0.313 µM)
- MIC ([2]; KUB No. 6472 Bacteroides stercoris): 1 µg/mL (≈ 2.61 µM)
- MIC ([2]; KUB No. 6473 Bacteroides fragilis): 0.25 µg/mL (≈ 0.652 µM)
- MIC ([2]; KUB No. 6474 Bacteroides fragilis): 1 µg/mL (≈ 2.61 µM)
- MIC ([2]; KUB No. 6475 Bacteroides thetaiotaomicron): 2 µg/mL (≈ 5.22 µM)
- MIC ([2]; KUB No. 6476 Bacteroides vulgatus): 0.5 µg/mL (≈ 1.3 µM)
- MIC ([2]; KUB No. 6477 Bacteroides fragilis): 4 µg/mL (≈ 10.4 µM)
- MIC ([2]; KUB No. 6478 Bacteroides fragilis): 0.12 µg/mL (≈ 0.313 µM)
- MIC ([2]; KUB No. 6481 Bacteroides fragilis): 0.12 µg/mL (≈ 0.313 µM)
- MIC ([2]; KUB No. 6483 Bacteroides fragilis): 0.12 µg/mL (≈ 0.313 µM)
- MIC ([2]; KUB No. 6484 Bacteroides fragilis): 0.25 µg/mL (≈ 0.652 µM)
- MIC ([2]; KUB No. 6485 Bacteroides vulgatus): 8 µg/mL (≈ 20.9 µM)
- MIC ([2]; KUB No. 6486 Bacteroides fragilis): 0.12 µg/mL (≈ 0.313 µM)
- MIC ([2]; KUB No. 6490 Bacteroides fragilis): 64 µg/mL (≈ 167 µM)
- MIC ([2]; KUB No. 6491 Bacteroides fragilis): 16 µg/mL (≈ 41.7 µM)
- MIC ([2]; KUB No. 6493 Bacteroides thetaiotaomicron): 0.25 µg/mL (≈ 0.652 µM)
- MIC ([2]; KUB No. 6496 Bacteroides fragilis): 0.12 µg/mL (≈ 0.313 µM)
- MIC ([2]; KUB No. 6497 Bacteroides vulgatus): 0.12 µg/mL (≈ 0.313 µM)
- MIC ([2]; KUB No. 6502 Bacteroides fragilis): 16 µg/mL (≈ 41.7 µM)
- MIC ([2]; KUB No. 6503 Bacteroides thetaiotaomicron): 0.5 µg/mL (≈ 1.3 µM)
- MIC ([2]; KUB No. 6504 Bacteroides caccae): 0.25 µg/mL (≈ 0.652 µM)
- MIC ([2]; KUB No. 6506 Bacteroides thetaiotaomicron): 4 µg/mL (≈ 10.4 µM)
- MIC ([2]; KUB No. 6509 Bacteroides fragilis): > 512 µg/mL
- MIC ([2]; KUB No. 6511 Bacteroides salyersiae): 1 µg/mL (≈ 2.61 µM)
- MIC ([2]; KUB No. 6513 Bacteroides fragilis): 0.25 µg/mL (≈ 0.652 µM)
- MIC ([2]; KUB No. 6515 Bacteroides thetaiotaomicron): 2 µg/mL (≈ 5.22 µM)
- MIC ([2]; KUB No. 6518 Bacteroides fragilis): 0.06 µg/mL (≈ 0.156 µM)
- MIC ([2]; KUB No. 6522 Bacteroides fragilis): 0.25 µg/mL (≈ 0.652 µM)
- MIC ([2]; KUB No. 6523 Bacteroides fragilis): 4 µg/mL (≈ 10.4 µM)
- MIC ([2]; KUB No. 6525 Bacteroides fragilis): 4 µg/mL (≈ 10.4 µM)
- MIC ([2]; KUB No. 6527 Bacteroides thetaiotaomicron): 4 µg/mL (≈ 10.4 µM)
- MIC ([2]; KUB No. 6530 Bacteroides thetaiotaomicron): 2 µg/mL (≈ 5.22 µM)
- MIC ([2]; KUB No. 6535 Bacteroides fragilis): 0.12 µg/mL (≈ 0.313 µM)
- MIC ([2]; KUB No. 6544 Bacteroides vulgatus): 1 µg/mL (≈ 2.61 µM)
- MIC ([2]; KUB No. 6545 Bacteroides thetaiotaomicron): 2 µg/mL (≈ 5.22 µM)
- MIC ([2]; KUB No. 6556 Bacteroides vulgatus): 1 µg/mL (≈ 2.61 µM)
- MBC [3]: 8 µg/mL (≈ 20.9 µM)
- MIC [3]: 4 µg/mL (≈ 10.4 µM)
- MIC [4]: 64 µg/mL (≈ 167 µM)
- MBC [5]: 32 µg/mL (≈ 83.4 µM)
- MIC [5]: 32 µg/mL (≈ 83.4 µM)
